Results: US11767295B2, “Isoindole derivative” (TIANJIN HEMAY PHARMACEUTICAL CO., LTD., priority 2018, dated 2023)

What was measured:
Assay type in all cases: in vivo
[1] = system: DNCB-induced atopic dermatitis in Balb/c mice; experiment: Efficacy evaluation test of DNCB-induced atopic dermatitis in Balb/c mice model (Biological Example 1); conditions: BID × 10
Procedure: 60 healthy male SPF Balb/c mice, each of which the body weight was 19-21 g, were randomly divided into 6 groups by body weight. There were 10 mice in each group.
(§1) Before the test, the hair around the right ear of the mouse was removed to reduce the interference in the drug adhesion to the hair.
(§2) The start of the test was recorded as Day 1. The specific time for measuring ear thickness was slightly adjusted based on FIG. 1. After the end of the 18th day of the test, blood was taken from each animal to detect the concentration of immunoglobulin (IgE) in the serum (in accordance with the kit instructions). Both ears of the animal were cut off. Ear pieces were cut by an 8 mm punch at the fixed position of the ears and weighed. Differences in the swelling degrees of two ears were calculated.
The changes in mouse ear thickness and the ear weights of the same area and the IgE concentrations in the serum among different groups on the 18th day were analyzed and compared statistically with One-Way Anova in SPSS 17, respectively. The G test method was used to delete outliers. p<0.05 indicated there were statistical differences. Ear swelling degree (mg)=right ear weight (mg)−left ear weight (mg); Ear thickness change (mm)=right ear thickness (mm)−left ear thickness (mm); Inhibitory rate of ear swelling degree (%)=1−(ear swelling degree of drug administration group−ear swelling degree of blank control group)/(ear swelling degree of model control group−ear swelling degree of blank control group)×100%; Inhibitory rate of ear thickness change (%)=1−(ear thickness change of drug administration group−ear thickness change of blank control group)/(ear thickness change of model control group−ear thickness change of blank control group)×100%; Inhibitory rate of IgE (%)=1−(IgE concentration in administration group−IgE concentration in blank control group)/(IgE concentration in model control group−IgE concentration in blank control group)×100%.

[2] = system: Phorbol ester (TPA)-induced ear swelling in mice; experiment: Inhibition of phorbol ester (TPA)-induced ear swelling in mice (Biological Example 5); conditions: ICR mice, 5 hours after TPA modeling; for Ear Swelling Rate / Inhibitory Rate of Ear Swelling Degree: 2 mg/mouse on right ear; for Ear Swelling Rate: (right−left)/left ear weight; for Inhibitory Rate of Ear Swelling Degree: vs model and blank control; for Ear Swelling Degree: 50 mg/mL in acetone, 40 μL in 2 administrations (2 mg/mouse)
Procedure: (§3) 72 male ICR mice were selected and divided into 9 groups. There were 8 mice in each group.
(§4) Before the test, the animals were grouped and the hair around the right ear of the mice was removed.
(§5) 20 μL of respective drug was applied to the animals in each test group (a blank solvent was applied to the model control group). Modeling and induction were carried out after 1 h 10 min. Except for the blank group, 20 μL of TPA at a concentration of 125 μg/mL were applied to the right ears of the animals for induction. After induction for 10 minutes, 20 μL of respective drug were applied to the right ears of the animals in each test group (a blank solvent was applied to the model control group).
After modeling for 5 hours, ear pieces of both sides on the same location of animals in each group were taken with a punch and weighed to calculate the ear swelling degree, ear swelling rate and inhibitory rate.
(§6) The ear swelling degree and ear swelling rate after modeling and administration for 5 hours were analyzed and tested with One-Way ANOVA multiple-group test index in SPSS17.0. P<0.05 indicated there were statistical differences. Ear swelling degree (mg)=right ear weight (mg)−left ear weight (mg); Ear swelling rate (%)=(right ear weight−left ear weight)/left ear weight×100%; Inhibitory rate of ear swelling degree (%)=1−(ear swelling degree of drug administration group−ear swelling degree of blank control group)/(ear swelling degree of model control group−ear swelling degree of blank control group)×100%.

[3] = system: DNCB-induced atopic dermatitis in Balb/c mice; experiment: Efficacy evaluation test of DNCB-induced atopic dermatitis in Balb/c mice model (Biological Example 2); conditions: BID × 10; for Inhibitory Rate of Ear Swelling / Weight Changes of Animals, Day 10 / Weight Changes of Animals, Day 17 / Weight Changes of Animals, Day 18 / Ear Swelling Degree / IgE Concentration / Inhibitory Rate of IgE Concentration: 1 mg/mouse on ear; for Inhibitory Rate of Ear Swelling / Ear Swelling Degree / IgE Concentration / Inhibitory Rate of IgE Concentration: 18th day; for Inhibitory Rate of Ear Swelling / Inhibitory Rate of IgE Concentration: vs model and blank control; for Weight Changes of Animals, Day 1 / Weight Changes of Animals, Day 10 / Weight Changes of Animals, Day 17 / Weight Changes of Animals, Day 18: Balb/c mice, Mean ± S.D.; for Weight Changes of Animals, Day 1: 1 mg/mouse (50 mg/mL, 20 μL) on ear; for Ear Swelling Degree: right minus left ear piece weight; for IgE Concentration / Inhibitory Rate of IgE Concentration: serum
Procedure: 70 healthy male SPF Balb/c mice, each of which the weight was 19-21 g, were randomly divided into 7 groups by body weight. There were 10 mice in each group.
as §1
as §2, with “Day” for “Day 1. The specific time for measuring ear thickness was slightly adjusted based on FIG.”
The IgE concentrations in the serum of different groups on the 18th day were analyzed and compared statistically with One-Way Anova in SPSS 17, respectively. The G test method was used to delete outliers. p<0.05 indicated there were statistical differences. Ear swelling degree (mg)=right ear weight (mg)−left ear weight (mg); Inhibitory rate of ear swelling degree (%)=1−(ear swelling degree of drug administration group−ear swelling degree of blank control group)/(ear swelling degree of model control group−ear swelling degree of blank control group)×100%; Inhibitory rate of IgE (%)=1−(IgE concentration in administration group−IgE concentration in blank control group)/(IgE concentration in model control group−IgE concentration in blank control group)×100%.

[4] = system: Phorbol ester (TPA)-induced ear swelling in mice; experiment: Inhibition of phorbol ester (TPA)-induced ear swelling in mice (Biological Example 6); conditions: ICR mice, 5 hours after TPA modeling; for Ear Swelling Rate / Inhibitory Rate of Ear Swelling Degree: 2 mg/mouse on right ear; for Ear Swelling Rate: (right−left)/left ear weight; for Inhibitory Rate of Ear Swelling Degree: vs model and blank control; for Ear Swelling Degree: 50 mg/mL in acetone, 40 μL in 2 administrations (2 mg/mouse)
Procedure: as §3, §4, §5
After modeling for 5 hours, ear pieces of both sides at the same location of animals in each group were taken with a punch and weighed to calculate the ear swelling degree, ear swelling rate and inhibitory rate.
as §6, with “P<0.05 indicated there were statistical differences.” left out, “(%)=1−(swelling” for “(%)=1−(ear swelling”, “group−swelling” for “group−ear swelling”, “group)/(swelling” for “group)/(ear swelling”

[5] = Balb/c mice, 1 mg/mouse on ear, Day 10, Mean ± S.D.
[6] = Balb/c mice, 1 mg/mouse on ear, Day 17, Mean ± S.D.
[7] = Balb/c mice, 1 mg/mouse on ear, Day 18, Mean ± S.D.

Compound	Ear Swelling Rate [2] [%]	Inhibitory Rate of Ear Swelling Degree [2] [%]	Ear Swelling Degree [2] [mg]	Ear Swelling Rate [4] [%]	Inhibitory Rate of Ear Swelling Degree [4] [%]	Ear Swelling Degree [4] [mg]	other results
COC(=O)CC(c1ccc(OC)c(OC)c1)N1C(=O)c2cccc(NC(C)=O)c2C1=O (stereo not drawn) [Example 3, methyl 3-(4-acetamido-1,3-dioxoisoindolin-2-yl)-3-(3,4-dimethoxyphenyl)propionate]	42.1 ± 19.3	83.7	6.0 ± 2.5				Inhibitory Rate of Ear Swelling Degree ([1]; 1 mg/mouse on ear, 18th day, vs model and blank control): 37.8%; Weight Changes of Animals, Day 1 ([1]; Balb/c mice, 1 mg/mouse (50 mg/mL, 20 μL) on ear, Day 1, Mean ± S.D.): 20.6 ± 0.8 g; Inhibitory Rate of Ear Thickness ([1]; Balb/c mice, 1 mg/mouse on ear, 18th day, vs model and blank control): 34.0%; Ear Thickness Change, Day 1 ([1]; Balb/c mice, 1 mg/mouse on ear, Day 1, Mean ± S.D.): 0.21 ± 0.01 mm; Ear Thickness Change, Day 10 [1, 5]: 0.38 ± 0.10 mm; Weight Changes of Animals, Day 10 [1, 5]: 22.3 ± 1.4 g; Ear Thickness Change, Day 17 [1, 6]: 0.58 ± 0.09 mm; Weight Changes of Animals, Day 17 [1, 6]: 22.1 ± 1.8 g; Ear Thickness Change, Day 18 [1, 7]: 0.58 ± 0.10 mm; Weight Changes of Animals, Day 18 [1, 7]: 21.7 ± 1.8 g; Ear Thickness ([1]; Table 4, Balb/c mice, 1 mg/mouse on ear, 18th day): 0.58 ± 0.10 mm; Ear Swelling Degree ([1]; right minus left ear piece weight (8 mm punch), 1 mg/mouse on ear, 18th day): 15.7 ± 4.5 mg; IgE Concentration ([1]; serum, 1 mg/mouse on ear, 18th day): 6526.5 ± 2171.9 ng/mL; Inhibitory Rate of IgE Concentration ([1]; serum, 1 mg/mouse on ear, 18th day, vs model and blank control): 27.0%
CCOC(=O)CC(c1ccc(OC)c(OCC)c1)N1C(=O)c2cccc(NC(C)=O)c2C1=O (stereo not drawn) [Example 6, ethyl 3-(4-acetamido-1,3-dioxoisoindolin-2-yl)-3-(3-ethoxy-4-methoxyphenyl)propionate]	36.4 ± 11.9	87.3	5.1 ± 1.6				Inhibitory Rate of Ear Swelling [3]: 41.7%; Weight Changes of Animals, Day 1 [3]: 21.4 ± 0.7 g; Weight Changes of Animals, Day 10 [3]: 22.8 ± 1.4 g; Weight Changes of Animals, Day 17 [3]: 23.3 ± 1.4 g; Weight Changes of Animals, Day 18 [3]: 22.7 ± 1.5 g; Ear Swelling Degree [3]: 17.1 ± 4.0 mg; IgE Concentration [3]: 5871.9 ± 2973.8 ng/mL; Inhibitory Rate of IgE Concentration [3]: 32.8%
CCOc1cc(C(CC(=O)OC(C)C)N2C(=O)c3cccc(NC(C)=O)c3C2=O)ccc1OC (stereo not drawn) [Example 12, isopropyl 3-(4-acetamido-1,3-dioxoisoindolin-2-yl)-3-(3-ethoxy-4-methoxyphenyl)propionate]	39.6 ± 14.0	84.8	5.8 ± 2.3				
CCOc1cc(C(CC(=O)OC)N2C(=O)c3cccc(NC(C)=O)c3C2=O)ccc1OC(C)C (stereo not drawn) [Example 18, methyl 3-(4-acetamido-1,3-dioxoisoindolin-2-yl)-3-(3-ethoxy-4-isopropoxyphenyl)propionate]				33.9 ± 14.0	88.1	4.8 ± 1.9	
CCOc1cc(C(CC(=O)OC)N2C(=O)c3cccc(NC(C)=O)c3C2=O)ccc1OC1CCCC1 (stereo not drawn) [Example 20, methyl 3-(4-acetamido-1,3-dioxoisoindolin-2-yl)-3-(3-ethoxy-4-cyclopentyloxyphenyl)propionate]				63.9 ± 19.3	73.0	8.8 ± 2.8	
CCOc1cc(C(CC(=O)OC)N2C(=O)c3cccc(N(C)C(C)=O)c3C2=O)ccc1OC (stereo not drawn) [Example 24, methyl 3-(4-(N-methylacetamido)-1,3-dioxoisoindolin-2-yl)-3-(3-ethoxy-4-methoxyphenyl)propionate]	43.0 ± 11.8	84.2	5.9 ± 1.7				
CCOc1cc(C(CC(=O)OC)N2C(=O)c3ccc(NC(C)=O)cc3C2=O)ccc1OC (stereo not drawn) [Example 25, methyl 3-(5-acetamido-1,3-dioxoisoindolin-2-yl)-3-(3-ethoxy-4-methoxyphenyl)propionate]	59.1 ± 17.5	73.6	8.5 ± 2.7				
CCCOc1cc(C(CC(=O)OC)N2C(=O)c3cccc(NC(C)=O)c3C2=O)ccc1OC (stereo not drawn) [Example 29, methyl 3-(4-acetamido-1,3-dioxoisoindolin-2-yl)-3-(3-propoxy-4-methoxyphenyl)propionate]				46.8 ± 33.9	81.5	6.5 ± 4.6	
COC(=O)CC(c1ccc(OC)c(OC2CCCC2)c1)N1C(=O)c2cccc(NC(C)=O)c2C1=O (stereo not drawn) [Example 30, methyl 3-(4-acetamido-1,3-dioxoisoindolin-2-yl)-3-(3-cyclopentyloxy-4-methoxyphenyl)propionate]				85.0 ± 27.4	60.8	12.0 ± 3.5	
CCOc1cc(C(CC(=O)OC)N2C(=O)c3cccc(O)c3C2=O)ccc1OC (stereo not drawn) [Example 32, methyl 3-(4-hydroxy-1,3-dioxoisoindolin-2-yl)-3-(3-ethoxy-4-methoxyphenyl)propionate]				93.3 ± 28.1	55.6	13.4 ± 4.0	
CCOC(=O)C[C@H](c1ccc(OC)c(OCC)c1)N1C(=O)c2cccc(NC(C)=O)c2C1=O [Example 51, ethyl (R)-3-(4-acetamido-1,3-dioxoisoindolin-2-yl)-3-(3-ethoxy-4-methoxyphenyl)propionate]							Inhibitory Rate of Ear Swelling [3]: 25.0%; Weight Changes of Animals, Day 1 [3]: 21.8 ± 0.7 g; Weight Changes of Animals, Day 10 [3]: 22.8 ± 1.2 g; Weight Changes of Animals, Day 17 [3]: 23.1 ± 1.1 g; Weight Changes of Animals, Day 18 [3]: 22.9 ± 1.3 g; Ear Swelling Degree [3]: 21.7 ± 4.5 mg; IgE Concentration [3]: 6599.5 ± 2996.0 ng/mL; Inhibitory Rate of IgE Concentration [3]: 23.3%
